Assays:
Assay in all cases: Test D pre-/postemergence plant response
Assay type in all cases: in vivo
[1] = tested on: goosegrass (Eleusine indica)
Procedure, shortened: (§1)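 Under greenhouse conditions for 14 to 21 days, plants treated pre- or postemergence with surfactant-formulated compound were compared by eye with untreated controls and scored 0–100 (100 = complete control; dash = no result).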

kochia (Kochia scoparia) = tested on: kochia (Kochia scoparia)
Procedure, shortened: as §1

[2] = tested on: bluegrass (annual bluegrass, Poa annua)
Procedure, shortened: as §1

[3] = tested on: Surinam grass (Brachiaria decumbens)
Procedure, shortened: as §1

[4] = tested on: signalgrass (broadleaf signalgrass, Brachiaria platyphylla)
Procedure, shortened: as §1

[5] = tested on: purslane (common purslane, Portulaca oleracea)
Procedure, shortened: as §1

[6] = tested on: barnyardgrass (Echinochloa crus-galli)
Procedure, shortened: as §1

[7] = tested on: johnsongrass (Sorghum halepense)
Procedure, shortened: as §1

[8] = tested on: mallow (common mallow, Malva sylvestris)
Procedure, shortened: as §1

[9] = tested on: bermudagrass (Cynodon dactylon)
Procedure, shortened: as §1

[10] = tested on: itchgrass (Rottboellia cochinchinensis)
Procedure, shortened: as §1

[11] = tested on: dayflower (Virginia (VA) dayflower, Commelina virginica)
Procedure, shortened: as §1

[12] = tested on: spanishneedles (Bidens bipinnata)
Procedure, shortened: as §1

[13] = tested on: dallisgrass (Paspalum dilatatum)
Procedure, shortened: as §1

[14] = tested on: green foxtail (Setaria viridis)
Procedure, shortened: as §1

[15] = tested on: Russian thistle (Salsola kali)
Procedure, shortened: as §1

[16] = tested on: sowthistle (common sowthistle, Sonchus oleraceous)
Procedure, shortened: as §1

[17] = tested on: chickweed (common chickweed, Stellaria media); settings: Postemergence
Procedure, shortened: as §1

[18] = Postemergence, 31 g ai/ha, scale 0 to 100
[19] = Postemergence, 62 g ai/ha, scale 0 to 100 (0 no effect, 100 complete control)
[20] = Postemergence, 125 g ai/ha, scale 0 to 100 (0 no effect, 100 complete control)
[21] = Postemergence, 16 g ai/ha, scale 0 to 100
[22] = Preemergence, 16 g ai/ha, scale 0 to 100, 0 no effect, 100 complete control
[23] = Preemergence, 31 g ai/ha, scale 0 to 100 (0 no effect, 100 complete control)
[24] = Preemergence, 62 g ai/ha, scale 0 to 100
[25] = Preemergence, 125 g ai/ha, scale 0 to 100
[26] = Postemergence, 31 g ai/ha, scale 0 to 100 (0 no effect, 100 complete control)
[27] = Preemergence, rate not given, scale 0 to 100, 0 no effect, 100 complete control
[28] = 125 g ai/ha, scale 0 to 100 (0 no effect, 100 complete control)

## COCCn1c(-c2cccc(C)c2)ncc(C(=O)C2=C(O)C3CCC(C3)C2=O)c1=O (centres unmarked) [Compound 233]
[1]; [18]
  Plant response rating, Goosegrass: 50
[1]; [19]
  Plant response rating, Goosegrass: 60
[1]; [20]
  Plant response rating, Goosegrass: 65
[1]; [21]
  Plant response rating, Goosegrass: 40
[1]; [22]
  Plant response rating, Goosegrass: 70
[1]; [23]
  Plant response rating, Goosegrass: 95
[1]; [24]
  Plant response rating, Goosegrass: 98
[1]; [25]
  Plant response rating, Goosegrass: 100
Kochia (Kochia scoparia); [18]
  Plant response rating, Kochia: 20
Kochia (Kochia scoparia); [19]
  Plant response rating, Kochia: 30
Kochia (Kochia scoparia); [20]
  Plant response rating, Kochia: 35
Kochia (Kochia scoparia); [21]
  Plant response rating, Kochia: 10
Kochia (Kochia scoparia); [22]
  Plant response rating, Kochia: 0
Kochia (Kochia scoparia); [23]
  Plant response rating, Kochia: 0
Kochia (Kochia scoparia); [24]
  Plant response rating, Kochia: 20
Kochia (Kochia scoparia); [25]
  Plant response rating, Kochia: 80
[2]; [26]
  Plant response rating, Bluegrass: 0
[2]; [19]
  Plant response rating, Bluegrass: 0
[2]; [20]
  Plant response rating, Bluegrass: 0
[2]; [21]
  Plant response rating, Bluegrass: 0
[2]; [22]
  Plant response rating, Bluegrass: 0
[2]; [23]
  Plant response rating, Bluegrass: 0
[2]; [24]
  Plant response rating, Bluegrass: 25
[2]; [25]
  Plant response rating, Bluegrass: 40
[3]; [19]
  Plant response rating, Surinam Grass: 50
[3]; [20]
  Plant response rating, Surinam Grass: 60
[3]; [21]
  Plant response rating, Surinam Grass: 30
[3]; [22]
  Plant response rating, Surinam Grass: 0
[3]; [23]
  Plant response rating, Surinam Grass: 5
[3]; [25]
  Plant response rating, Surinam Grass: 100
[4]; [18]
  Plant response rating, Signalgrass: 5
[4]; [19]
  Plant response rating, Signalgrass: 25
[4]; [20]
  Plant response rating, Signalgrass: 35
[4]; [21]
  Plant response rating, Signalgrass: 0
[4]; [22]
  Plant response rating, Signalgrass: 0
[4]; [23]
  Plant response rating, Signalgrass: 0
[4]; [25]
  Plant response rating, Signalgrass: 35
[5]; [18]
  Plant response rating, Purslane: 30
[5]; [19]
  Plant response rating, Purslane: 30
[5]; [20]
  Plant response rating, Purslane: 40
[5]; [21]
  Plant response rating, Purslane: 30
[5]; [22]
  Plant response rating, Purslane: 0
[5]; [23]
  Plant response rating, Purslane: 0
[5]; [24]
  Plant response rating, Purslane: 100
[5]; [25]
  Plant response rating, Purslane: 100
[6]; [26]
  Plant response rating, Barnyardgrass: 75
[6]; [19]
  Plant response rating, Barnyardgrass: 85
[6]; [20]
  Plant response rating, Barnyardgrass: 85
[6]; [21]
  Plant response rating, Barnyardgrass: 65
[6]; [22]
  Plant response rating, Barnyardgrass: 0
[6]; [23]
  Plant response rating, Barnyardgrass: 0
[6]; [24]
  Plant response rating, Barnyardgrass: 5
[6]; [25]
  Plant response rating, Barnyardgrass: 40
[7]; [18]
  Plant response rating, Johnsongrass: 35
[7]; [19]
  Plant response rating, Johnsongrass: 50
[7]; [20]
  Plant response rating, Johnsongrass: 50
[7]; [21]
  Plant response rating, Johnsongrass: 20
[7]; [22]
  Plant response rating, Johnsongrass: 0
[7]; [23]
  Plant response rating, Johnsongrass: 0
[7]; [24]
  Plant response rating, Johnsongrass: 20
[7]; [25]
  Plant response rating, Johnsongrass: 65
[8]; [18]
  Plant response rating, Mallow: 0
[8]; [19]
  Plant response rating, Mallow: 0
[8]; [20]
  Plant response rating, Mallow: 0
[8]; [21]
  Plant response rating, Mallow: 0
[8]; [22]
  Plant response rating, Mallow: 0
[8]; [23]
  Plant response rating, Mallow: 0
[8]; [24]
  Plant response rating, Mallow: 0
[8]; [25]
  Plant response rating, Mallow: 60
[9]; [26]
  Plant response rating, Bermudagrass: 70
[9]; [19]
  Plant response rating, Bermudagrass: 70
[9]; [20]
  Plant response rating, Bermudagrass: 70
[9]; [21]
  Plant response rating, Bermudagrass: 70
[9]; [22]
  Plant response rating, Bermudagrass: 5
[9]; [23]
  Plant response rating, Bermudagrass: 5
[9]; [24]
  Plant response rating, Bermudagrass: 85
[9]; [25]
  Plant response rating, Bermudagrass: 85
[10]; [18]
  Plant response rating, Itchgrass: 65
[10]; [19]
  Plant response rating, Itchgrass: 70
[10]; [20]
  Plant response rating, Itchgrass: 80
[10]; [21]
  Plant response rating, Itchgrass: 50
[10]; [22]
  Plant response rating, Itchgrass: 0
[10]; [23]
  Plant response rating, Itchgrass: 0
[10]; [24]
  Plant response rating, Itchgrass: 0
[10]; [25]
  Plant response rating, Itchgrass: 20
[11]; [18]
  Plant response rating, Dayflower, VA: 35
[11]; [19]
  Plant response rating, Dayflower, VA: 35
[11]; [20]
  Plant response rating, Dayflower, VA: 60
[11]; [21]
  Plant response rating, Dayflower, VA: 15
[11]; [22]
  Plant response rating, Dayflower, VA: 0
[11]; [23]
  Plant response rating, Dayflower, VA: 80
[11]; [24]
  Plant response rating, Dayflower, VA: 100
[11]; [25]
  Plant response rating, Dayflower, VA: 100
[12]; [18]
  Plant response rating, Spanishneedles: 35
[12]; [19]
  Plant response rating, Spanishneedles: 50
[12]; [20]
  Plant response rating, Spanishneedles: 60
[12]; [21]
  Plant response rating, Spanishneedles: 35
[12]; [22]
  Plant response rating, Spanishneedles: 0
[12]; [23]
  Plant response rating, Spanishneedles: 50
[12]; [25]
  Plant response rating, Spanishneedles: 95
[12]; [27]
  Plant response rating, Spanishneedles: 85
[13]; [18]
  Plant response rating, Dallisgrass: 10
[13]; [19]
  Plant response rating, Dallisgrass: 10
[13]; [20]
  Plant response rating, Dallisgrass: 35
[13]; [21]
  Plant response rating, Dallisgrass: 0
[13]; [22]
  Plant response rating, Dallisgrass: 0
[13]; [23]
  Plant response rating, Dallisgrass: 0
[13]; [24]
  Plant response rating, Dallisgrass: 0
[13]; [25]
  Plant response rating, Dallisgrass: 35
[14]; [18]
  Plant response rating, Foxtail, Green: 10
[14]; [19]
  Plant response rating, Foxtail, Green: 30
[14]; [20]
  Plant response rating, Foxtail, Green: 35
[14]; [21]
  Plant response rating, Foxtail, Green: 5
[14]; [22]
  Plant response rating, Foxtail, Green: 0
[14]; [23]
  Plant response rating, Foxtail, Green: 0
[14]; [24]
  Plant response rating, Foxtail, Green: 0
[14]; [25]
  Plant response rating, Foxtail, Green: 0
[15]; [20]
  Plant response rating, Russian Thistle: 10
[15]; [21]
  Plant response rating, Russian Thistle: 0
[15]; [22]
  Plant response rating, Russian Thistle: 50
[15]; [23]
  Plant response rating, Russian Thistle: 65
[15]; [25]
  Plant response rating, Russian Thistle: 100
[15]; [27]
  Plant response rating, Russian Thistle: 75
[16]; [18]
  Plant response rating, Sowthistle: 100
[16]; [20]
  Plant response rating, Sowthistle: 100
[16]; [21]
  Plant response rating, Sowthistle: 90
[16]; [22]
  Plant response rating, Sowthistle: 0
[16]; [23]
  Plant response rating, Sowthistle: 50
[16]; [25]
  Plant response rating, Sowthistle: 100
[17]; 31 g ai/ha, scale 0 to 100
  Plant response rating, Chickweed: 50
[17]; [28]
  Plant response rating, Chickweed: 60

## COCCn1c(-c2ccsc2)ncc(C(=O)C2=C(O)C3CCC(C3)C2=O)c1=O (centres unmarked) [Compound 228]
[1]; [20]
  Plant response rating, Goosegrass: 70
Kochia (Kochia scoparia); [20]
  Plant response rating, Kochia: 75
[2]; [26]
  Plant response rating, Bluegrass: 0
[2]; [20]
  Plant response rating, Bluegrass: 5
[3]; [20]
  Plant response rating, Surinam Grass: 70
[4]; [20]
  Plant response rating, Signalgrass: 20
[5]; [20]
  Plant response rating, Purslane: 35
[6]; [26]
  Plant response rating, Barnyardgrass: 20
[6]; [20]
  Plant response rating, Barnyardgrass: 80
[7]; [20]
  Plant response rating, Johnsongrass: 70
[8]; [20]
  Plant response rating, Mallow: 65
[9]; [26]
  Plant response rating, Bermudagrass: 70
[9]; [20]
  Plant response rating, Bermudagrass: 70
[10]; [20]
  Plant response rating, Itchgrass: 65
[11]; [20]
  Plant response rating, Dayflower, VA: 85
[12]; [20]
  Plant response rating, Spanishneedles: 70
[13]; [20]
  Plant response rating, Dallisgrass: 5
[14]; [20]
  Plant response rating, Foxtail, Green: 80
[15]; [20]
  Plant response rating, Russian Thistle: 65
[16]; [20]
  Plant response rating, Sowthistle: 98
[17]; [28]
  Plant response rating, Chickweed: 75

— patent US8952024B2, “Herbicidal pyrimidone derivatives” (E I du Pont de Nemours and Company, priority 2009, dated 2015)
